Data from US20110184188A1, “Insecticidal Benzenedicarboxamide Derivative” (priority 2008, published 2011).
Read-outs that look alike come from different tables or passages of the source. Blank lines part the entries; values can stand above or below the compound they belong to.

Key:
[1] = logP(neutral) by reverse phase chromatography, potassium dihydrogen phosphate / acetonitrile; format: physicochemical
[2] = tested on: Spodoptera litura third instar larvae; assay: Test to larva of Spodoptera litura (sweet potato leaf dip); format: in vivo; conditions: foliar, 168 h; Spodoptera litura third instar larvae, active ingredient concentration 20 ppm, seven days later, 25° C.; read-out: insect mortality
Procedure: Test to Larva of Spodoptera litura
Solvent: dimethylformamide 3 parts by weight Emulsifier: polyoxyethylene alkyl phenyl ether 1 part by weight
In order to prepare preparations of suitable active compounds, 1 part by weight of each of the active compounds was blended with the above amount of the solvent containing the above amount of the emulsifier, and the resulting mixture was diluted to a prescribed concentration with water.
Leaves of sweet potato were immersed in the tested liquid medication of a prescribed concentration diluted with water. After air drying of the liquid medication, the leaves were put into a petri dish of a diameter of 9 cm, and 10 Spodoptera litura third instar larvae were released in the petri dish, and the petri dish was placed in a constant temperature room of 25° C. Two days later and four days later, leaves of sweet potato were added. Seven days later, the number of dead insects was examined, and insect mortality was calculated.
In the present test, results of 2 petri dishes for each compound were averaged.

[3] = logP(acid) by reverse phase (C18) chromatography at pH 2.3; format: physicochemical; conditions: pH 2.3
[4] = potassium dihydrogen phosphate / acetonitrile
[5] = 0.0025M potassium dihydrogen phosphate aqueous solution / acetonitrile, linear gradient 10-95% acetonitrile
[6] = reverse phase (C18) chromatography
[7] = reverse phase (C18) chromatography column, reverse phase (C18) chromatography, pH2.3, 0.1% phosphoric acid / acetonitrile gradient 10-95%, read-out: logP (acid)
[8] = reverse phase (C18) chromatography, pH2.3, 0.1% phosphoric acid / acetonitrile gradient 10-95%, read-out: logP (acid)

melting point: 105 to 107 °C
SMILES: CCN(CC)C(=O)c1c(Cl)cccc1C(=O)Nc1ccc(Cn2nc(C(F)(F)F)cc2C(F)(F)F)cc1C

melting point: 170 to 172 °C
SMILES: Cc1cc(Cn2nc(C(F)(F)F)cc2C(F)(F)F)ccc1NC(=O)c1ccccc1C(=O)NC(C)C

melting point: 179 to 184 °C
SMILES: Cc1cc(Cn2nc(C(F)(F)F)cc2C(F)(F)F)ccc1NC(=O)c1cccc(Cl)c1C(=O)NC(C)(C)C(=O)O

melting point: 187 to 188 °C
SMILES: CCC(C)NC(=O)c1c(Cl)cccc1C(=O)Nc1ccc(Cn2nc(C(F)(F)F)cc2C(F)(F)F)cc1C (stereo not drawn)

melting point: 211 to 212 °C
SMILES: CCC(C)NC(=O)c1cccc(Cl)c1C(=O)Nc1ccc(Cn2nc(C(F)(F)F)cc2C(F)(F)F)cc1C (stereo not drawn)

melting point: 105 to 110 °C
SMILES: Cc1cc(Cn2nc(C(F)(F)C(F)(F)F)nc2C(F)(F)F)ccc1NC(=O)c1cccc(Cl)c1C(=O)NC(C)(C)CO

melting point: 203 to 206 °C
SMILES: Cc1cc(Cn2nc(C(F)(F)C(F)(F)F)nc2C(F)(F)F)ccc1NC(=O)c1cccc(Cl)c1C(=O)NC(C)(C)C=NO

melting point: 168 to 170 °C
SMILES: CSC[C@H](C)NC(=O)c1c(Cl)cccc1C(=O)Nc1ccc(Cn2c(C)nnc2C(F)(F)F)cc1C

melting point: 201 °C
SMILES: Cc1cc(Cn2nc(C(F)(F)C(F)(F)F)nc2C(F)(F)F)ccc1NC(=O)c1cccc(-c2cc(C(F)(F)F)cc(C(F)(F)F)c2)c1C(=O)N[C@@H](C)CS(C)(=O)=O

melting point: 176 to 178 °C
SMILES: CC(C)NC(=O)c1ccccc1C(=O)Nc1ccc(Cn2nc(C(F)(F)F)cc2C(F)(F)F)cc1

SMILES: Cc1nc(Cn2cc(C(F)(F)C(F)(F)F)c(C(F)(F)C(F)(F)F)n2)ccc1NC(=O)c1cccc(I)c1C(=O)NC(C)C[S+](C)[O-] (mixture of isomers) [13-159]
logP (neutral) [1, 4]: 3.08

logP (neutral) [1, 5]: logP (neutral) 3.74
SMILES: CSC[C@H](C)NC(=O)c1c(C(=O)Nc2ccc(Cn3nc(C(F)(F)F)cc3C(F)(F)F)nc2C)ccc(F)c1Br [9-10]

logP (neutral) [1, 5]: logP (neutral) 3.13
SMILES: Cc1cc(Cn2nc(C(F)(F)C(F)(F)F)nc2C(F)(F)F)ccc1NC(=O)c1ccc(C(F)(F)F)c(Cl)c1C(=O)N[C@@H](C)C[S+](C)[O-] (stereo partly drawn) [9-24]

logP (neutral) [1, 4]: 3.10
SMILES: Cc1nc(Cn2nc(C(F)(F)F)cc2C(F)(F)F)ccc1NC(=O)c1cc(Cl)cc(Cl)c1C(=O)N[C@@H](C)CS(C)(=O)=O [10-3]

SMILES: COC(=O)CNC(=O)C(C)(C)NC(=O)c1c(Cl)cccc1C(=O)Nc1ccc(Cn2nc(C(F)(F)F)cc2C(F)(F)F)cc1C [13-121, methyl N-{2-[(4-{[3,5-bis(trifluoromethyl)-1H-pyrazol-1-yl]methyl}-2-methylphenyl)carbamoyl]-6-chlorobenzoyl)-2-methylalanyl glycinate]
mortality at 20 ppm [2]: 100%

SMILES: Cc1cc(Cn2cc(C(F)(F)C(F)(F)F)c(C(F)(F)C(F)(F)F)n2)ccc1NC(=O)c1cccc(Br)c1C(=O)N[C@@H](C)CS(C)(=O)=O [13-140, N^1-(4-{[3,4-bis(pentafluoroethyl)-1H-pyrazol-1-yl]methyl}-2-methylphenyl)-3-bromo-N^2-[(1S)-1-methyl-2-(methylsulfonyl)ethyl]-1,2-benzenedicarboxamide]
mortality at 20 ppm [2]: 100%

SMILES: CON=C(c1cn(Cc2ccc(NC(=O)c3cccc(I)c3C(=O)N[C@@H](C)CSC)c(C)c2)nc1C(F)(F)F)C(F)(F)F [13-147, 3-iodo-N^2-[(1S)-1-methyl-2-(methylthio)ethyl]-N^1-[2-methyl-4-({4-[2,2,2-trifluoro-N-methoxyethanimidoyl]-3-(trifluoromethyl)-1H-pyrazol-1-yl}methyl)phenyl]-1,2-benzenedicarboxamide]
mortality at 20 ppm [2]: 100%

SMILES: Cc1cc(Cn2nc(C(F)(F)C(F)(F)F)nc2C(F)(F)F)ccc1NC(=O)c1cccc(Cl)c1C(=O)NC(C)(C)C=O [14-130, 3-chloro-N^2-(1,1-dimethyl-2-oxoethyl)-N^1-(2-methyl-4-{[3-(pentafluoroethyl)-5-(trifluoromethyl)-1H-1,2,4-triazol-1-yl]methyl}phenyl)-1,2-benzenedicarboxamide]
mortality at 20 ppm [2]: 100%

logP (acid) [3, 6]: logP (acid) 2.25
SMILES: Cc1nc(Cn2nc(C(F)(F)F)nc2C(F)(F)F)ccc1NC(=O)c1cccc(S(=O)(=O)N(C)C)c1C(=O)N[C@@H](C)C[S+](C)[O-] (stereo partly drawn) [14-367]

logP (acid) [3, 6]: logP (acid) 2.43
SMILES: Cc1nc(Cn2nc(C(F)(F)F)nc2C(F)(F)F)ccc1NC(=O)c1cccc(S(C)(=O)=O)c1C(=O)N[C@@H](C)CS(C)(=O)=O [14-368]

logP (acid) [3, 6]: logP (acid) 2.72
SMILES: Cc1nc(Cn2nc(C(F)(F)F)nc2C(F)(F)F)ccc1NC(=O)c1cccc(S(=O)(=O)N(C)C)c1C(=O)N[C@@H](C)CS(C)(=O)=O [14-369]

logP (acid) [3, 6]: logP (acid) 3.88
SMILES: CSC[C@H](C)NC(=O)c1c(C(=O)Nc2ccc(Cn3nc(C(F)(F)C(F)(F)F)nc3C(F)(F)F)cc2C)cccc1S(=O)(=O)N(C)C [14-384]

logP (acid) [3, 6]: logP (acid) 4.33
SMILES: CSC[C@H](C)NC(=O)c1c(SC)cccc1C(=O)Nc1ccc(Cn2nc(C(F)(F)C(F)(F)F)nc2C(F)(F)C(F)(F)F)nc1C [14-387]

logP (acid) [3, 6]: logP (acid) 3.53
SMILES: CSC[C@H](C)NC(=O)c1c(SC)cccc1C(=O)Nc1ccc(Cn2nc(C(F)(F)C(F)(F)F)n(C(F)F)c2=O)cc1C [14-389]

logP (acid) [3, 6]: logP (acid) 3.34
SMILES: CSC[C@H](C)NC(=O)c1c(C(=O)Nc2ccc(Cn3nc(C(F)(F)C(F)(F)F)nc3C(F)(F)F)nc2C)cccc1S(C)(=O)=O [14-393]

logP (acid) [3, 6]: logP (acid) 2.39
SMILES: Cc1nc(Cn2nc(C(F)(F)C(F)(F)F)nc2C(F)(F)F)ccc1NC(=O)c1cccc(S(C)(=O)=O)c1C(=O)N[C@@H](C)C[S+](C)[O-] (stereo partly drawn) [14-394]

logP (acid) [3, 6]: logP (acid) 3.13
SMILES: Cc1cc(Cn2nc(C(F)(F)C(F)(F)F)nc2C(F)(F)F)ccc1NC(=O)c1cccc(S(=O)(=O)N(C)C)c1C(=O)N[C@@H](C)CS(C)(=O)=O [14-395]

logP (acid) [3, 6]: logP (acid) 2.76
SMILES: Cc1nc(Cn2nc(C(F)(F)C(F)(F)F)nc2C(F)(F)F)ccc1NC(=O)c1cccc(S(C)(=O)=O)c1C(=O)N[C@@H](C)CS(C)(=O)=O [14-396]

logP (acid) [3, 6]: logP (acid) 3.49
SMILES: CSC[C@H](C)NC(=O)c1c(SC)cccc1C(=O)Nc1ccc(Cn2nc(C(F)(F)C(F)F)nc2C(F)(F)F)nc1C [14-397]

logP (acid) [3, 6]: logP (acid) 3.54
SMILES: CSC[C@H](C)NC(=O)c1c(C(=O)Nc2ccc(Cn3nc(C(F)(F)F)nc3C(F)(F)F)cc2C)cccc1S(=O)(=O)N(C)C [14-414]

logP (acid) [3, 6]: logP (acid) 3.3
SMILES: CSC[C@H](C)NC(=O)c1c(SC)cccc1C(=O)Nc1cnc(Cn2nc(C(F)(F)F)nc2C(F)(F)F)cc1C [14-415]

logP (acid) [3, 6]: logP (acid) 2.79
SMILES: CSC[C@H](C)NC(=O)c1c(Cl)cccc1C(=O)Nc1ccc(Cn2nc(C(F)(F)C(F)(F)F)n(N)c2=O)cc1C [14-421]

logP (acid) [3, 6]: logP (acid) 1.82
SMILES: Cc1cc(Cn2nc(C(F)(F)C(F)(F)F)n(N)c2=O)ccc1NC(=O)c1cccc(Cl)c1C(=O)N[C@@H](C)C[S+](C)[O-] (stereo partly drawn) [14-422]

logP (acid) [3, 6]: logP (acid) 2.13
SMILES: Cc1cc(Cn2nc(C(F)(F)C(F)(F)F)n(N)c2=O)ccc1NC(=O)c1cccc(Cl)c1C(=O)N[C@@H](C)CS(C)(=O)=O [14-423]

SMILES: CSC[C@H](C)NC(=O)c1c(Cl)cccc1C(=O)Nc1ccc(CN2N=C(C(F)(F)C(F)(F)F)N(C(C)=O)C2C(F)(F)F)cc1C (stereo partly drawn) [16-6, N^1-(4-{[4-acetyl-3-(pentafluoroethyl)-5-(trifluoromethyl)-4,5-dihydro-1H-1,2,4-triazol-1-yl]methyl}-2-methylphenyl)-3-chloro-N^2-[(2S)-1-(methylsulfanyl)propan-2-yl]-1,2-benzenedicarboxamide]
mortality at 20 ppm [2]: 100%

chromatographic logP [3, 7]: 1.49
SMILES: Cc1cc(COS(C)(=O)=O)ncc1[N+](=O)[O-] [SYNTHESIS EXAMPLE 68-1]

chromatographic logP [3, 7]: 3.64
SMILES: Cc1cc(Cn2nc(C(F)(F)F)cc2C(F)(F)F)ncc1[N+](=O)[O-] [SYNTHESIS EXAMPLE 68-2]

chromatographic logP [3]: 3.38
SMILES: Cc1cc(Cn2nc(C(F)(F)F)nc2C(F)(F)F)ncc1[N+](=O)[O-] [SYNTHESIS EXAMPLE 69-1]

chromatographic logP [3, 7]: 4.68
SMILES: Cc1nc(Cn2nc(C(F)(F)C(F)(F)F)cc2C(F)(F)C(F)(F)F)ccc1[N+](=O)[O-] [SYNTHESIS EXAMPLE 81-1]

chromatographic logP [3]: 2.83
SMILES: Cc1nc(Cn2nc(C(F)(F)C(F)(F)F)cc2C(F)(F)C(F)(F)F)ccc1N [SYNTHESIS EXAMPLE 81-2]

chromatographic logP [3, 7]: 4.5
SMILES: Cc1nc(Cn2cc(C(F)(F)C(F)(F)F)c(C(F)(F)C(F)(F)F)n2)ccc1[N+](=O)[O-] [SYNTHESIS EXAMPLE 82-1]

chromatographic logP [3]: 2.64
SMILES: Cc1nc(Cn2cc(C(F)(F)C(F)(F)F)c(C(F)(F)C(F)(F)F)n2)ccc1N [SYNTHESIS EXAMPLE 82-2]

chromatographic logP [3, 7]: 0.55
SMILES: Cc1nc(Cn2cnc(C(F)(F)C(F)F)n2)ccc1N [SYNTHESIS EXAMPLE 83-2]

SMILES: Cc1nc(Cn2cnc(C(F)(F)C(F)(F)C(F)(F)F)n2)ccc1N [SYNTHESIS EXAMPLE 84-2]
chromatographic logP [3, 8]: 1.52

chromatographic logP [3]: 2.85
SMILES: Cc1nc(Cn2nnc(C(F)(F)F)n2)ccc1[N+](=O)[O-] [SYNTHESIS EXAMPLE 85-1]

chromatographic logP [3, 7]: 1.18
SMILES: Cc1nc(Cn2nnc(C(F)(F)F)n2)ccc1N [SYNTHESIS EXAMPLE 85-2]

SMILES: Cc1nc(Cn2nnc(C(F)(F)C(F)(F)C(F)(F)F)n2)ccc1[N+](=O)[O-] [SYNTHESIS EXAMPLE 86-1]
chromatographic logP [3, 8]: 3.78

SMILES: Cc1nc(Cn2nnc(C(F)(F)C(F)(F)C(F)(F)F)n2)ccc1N [SYNTHESIS EXAMPLE 86-2]
chromatographic logP [3, 8]: 2.3
